Columns and labels:
[1] = target: T1, Ubiquitin carboxyl-terminal hydrolase 7 (Homo sapiens, UniProt Q93009); test: Inhibition of human USP7 using Ub-EKL as substrate by SDS-PAGE assay
[2] = target: T2, Ubiquitin carboxyl-terminal hydrolase 47 (Homo sapiens, UniProt Q96K76); test: Inhibition of human USP47 using Ub-EKL as substrate by SDS-PAGE assay
T2 sequence (Q96K76 whole entry): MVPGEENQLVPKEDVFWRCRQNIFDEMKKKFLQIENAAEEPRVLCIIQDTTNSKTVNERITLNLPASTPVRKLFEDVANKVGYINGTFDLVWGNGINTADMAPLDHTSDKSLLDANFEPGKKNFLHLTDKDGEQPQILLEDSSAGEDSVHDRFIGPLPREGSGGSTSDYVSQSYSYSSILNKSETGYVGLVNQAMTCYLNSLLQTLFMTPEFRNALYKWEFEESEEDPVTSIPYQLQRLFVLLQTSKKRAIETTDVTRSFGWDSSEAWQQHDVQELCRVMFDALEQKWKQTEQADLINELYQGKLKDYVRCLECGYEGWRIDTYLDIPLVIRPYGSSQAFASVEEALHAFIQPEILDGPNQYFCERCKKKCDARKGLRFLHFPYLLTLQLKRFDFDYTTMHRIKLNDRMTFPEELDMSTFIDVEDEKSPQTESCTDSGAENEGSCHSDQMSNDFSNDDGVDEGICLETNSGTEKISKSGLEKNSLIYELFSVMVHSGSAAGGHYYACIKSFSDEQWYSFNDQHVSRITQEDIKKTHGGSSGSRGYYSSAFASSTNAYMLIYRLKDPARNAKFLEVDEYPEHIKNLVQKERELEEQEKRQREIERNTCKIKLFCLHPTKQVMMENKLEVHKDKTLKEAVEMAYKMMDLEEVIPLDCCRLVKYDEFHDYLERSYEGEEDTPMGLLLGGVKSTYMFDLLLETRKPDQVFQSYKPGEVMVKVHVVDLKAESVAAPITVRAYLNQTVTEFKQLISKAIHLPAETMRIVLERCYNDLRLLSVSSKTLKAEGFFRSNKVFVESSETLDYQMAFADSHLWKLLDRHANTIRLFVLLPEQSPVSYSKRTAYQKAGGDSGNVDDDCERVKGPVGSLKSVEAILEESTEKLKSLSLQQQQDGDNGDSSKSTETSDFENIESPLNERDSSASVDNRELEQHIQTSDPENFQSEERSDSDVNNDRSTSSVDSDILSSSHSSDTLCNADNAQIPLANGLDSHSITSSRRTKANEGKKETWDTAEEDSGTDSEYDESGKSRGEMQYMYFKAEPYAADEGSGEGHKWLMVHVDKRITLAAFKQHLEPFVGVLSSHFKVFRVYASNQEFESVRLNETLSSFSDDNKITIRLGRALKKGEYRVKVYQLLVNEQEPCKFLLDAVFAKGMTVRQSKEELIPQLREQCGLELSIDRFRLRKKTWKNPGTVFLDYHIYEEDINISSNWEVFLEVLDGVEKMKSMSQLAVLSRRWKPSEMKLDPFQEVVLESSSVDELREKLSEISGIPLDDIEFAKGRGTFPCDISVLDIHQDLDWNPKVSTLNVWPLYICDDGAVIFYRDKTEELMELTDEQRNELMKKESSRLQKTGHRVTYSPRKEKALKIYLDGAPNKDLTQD

[3] = target: T1, Ubiquitin carboxyl-terminal hydrolase 7; test: Inhibition of human USP7 using human N-terminal GST-tagged UBA52 as substrate preincubated for 10 mins followed by substrate addition measured after 45 mins by coomassie brilliant blue staining-based SDS-PAGE analysis
[4] = target: T1, Ubiquitin carboxyl-terminal hydrolase 7; test: Inhibition of human USP7 using ubiquitin-Rh110 as substrate incubated for 30 mins by Fluorometric plate reader analysis
[5] = target: T1, Ubiquitin carboxyl-terminal hydrolase 7; test: Inhibition of human USP7 using Ub-AMC as substrate

T1 sequence (Q93009 whole entry): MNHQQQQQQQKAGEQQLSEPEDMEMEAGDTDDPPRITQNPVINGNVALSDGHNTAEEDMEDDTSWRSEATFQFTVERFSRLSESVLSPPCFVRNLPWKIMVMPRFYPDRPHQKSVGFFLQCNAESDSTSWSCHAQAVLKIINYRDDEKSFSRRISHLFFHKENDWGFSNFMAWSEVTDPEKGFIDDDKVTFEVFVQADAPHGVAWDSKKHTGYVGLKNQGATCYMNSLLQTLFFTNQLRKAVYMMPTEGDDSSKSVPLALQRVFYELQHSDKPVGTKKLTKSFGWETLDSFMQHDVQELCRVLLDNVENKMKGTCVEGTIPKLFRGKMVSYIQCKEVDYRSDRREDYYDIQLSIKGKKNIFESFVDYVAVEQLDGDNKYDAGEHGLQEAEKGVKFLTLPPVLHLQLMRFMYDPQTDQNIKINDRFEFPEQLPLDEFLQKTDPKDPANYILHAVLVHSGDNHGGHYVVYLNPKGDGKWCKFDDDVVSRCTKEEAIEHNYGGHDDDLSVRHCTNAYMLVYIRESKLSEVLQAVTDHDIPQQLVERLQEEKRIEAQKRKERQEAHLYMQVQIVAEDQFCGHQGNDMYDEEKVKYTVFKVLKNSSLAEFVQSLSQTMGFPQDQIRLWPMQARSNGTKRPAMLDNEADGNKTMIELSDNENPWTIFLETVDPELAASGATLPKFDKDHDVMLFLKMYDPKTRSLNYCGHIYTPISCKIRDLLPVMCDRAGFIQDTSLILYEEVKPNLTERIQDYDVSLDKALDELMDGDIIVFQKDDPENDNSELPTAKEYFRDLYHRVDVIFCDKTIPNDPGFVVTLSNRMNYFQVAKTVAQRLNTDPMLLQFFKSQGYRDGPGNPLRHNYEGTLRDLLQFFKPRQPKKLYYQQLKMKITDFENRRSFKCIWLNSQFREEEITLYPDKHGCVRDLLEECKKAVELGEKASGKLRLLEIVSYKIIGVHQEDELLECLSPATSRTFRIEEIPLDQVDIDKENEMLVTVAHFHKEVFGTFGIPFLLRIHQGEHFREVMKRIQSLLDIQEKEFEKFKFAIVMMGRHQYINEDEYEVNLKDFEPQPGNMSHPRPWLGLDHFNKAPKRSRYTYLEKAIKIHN

EC50 [1] | EC50 [2] | SMILES | also measured
0.17 µM | 0.36 µM | CC1=CS(=O)(=O)c2cc(NC(=O)c3cc([N+](=O)[O-])c(Sc4c(Cl)cncc4Cl)s3)ccc21 | –
0.13 µM | 2.03 µM | O=C(Nc1ccc2c(c1)S(=O)(=O)CC2)c1cc([N+](=O)[O-])c(Sc2c(Cl)cncc2Cl)s1 | –
4.3 µM | 6.4 µM | O=C(c1cc([N+](=O)[O-])c(Sc2c(Cl)cncc2Cl)s1)N1CCS(=O)(=O)CC1 | –
0.56 µM | 1.59 µM | O=C(Nc1cccc(S(=O)(=O)C2CC2)c1)c1cc([N+](=O)[O-])c(Sc2c(Cl)cncc2Cl)s1 | –
2 µM | 2.2 µM | CS(=N)(=O)c1cccc(NC(=O)c2cc([N+](=O)[O-])c(Sc3c(Cl)cncc3Cl)s2)c1 (stereo not drawn) | –
0.075 µM | 0.36 µM | CC1CS(=O)(=O)c2cc(NC(=O)c3cc([N+](=O)[O-])c(Sc4c(Cl)cncc4Cl)s3)ccc21 (stereo not drawn) | –
0.51 µM | 1.4 µM | CS(=O)(=O)c1cccc(NC(=O)c2cc([N+](=O)[O-])c(Sc3c(Cl)cncc3Cl)s2)c1 | –
0.5 µM | 0.45 µM | CN(C)CCOc1ccc(NC(=O)c2cc([N+](=O)[O-])c(Sc3c(Cl)cncc3Cl)s2)cc1 | –
0.59 µM | 5.1 µM | N#Cc1cc(C(=O)Nc2ccc3c(c2)S(=O)(=O)C=C3)sc1Sc1c(Cl)cncc1Cl | –

Further lines, the compound ahead of its results:

SMILES | EC50 [1] | EC50 [2] | also measured
C=C(C)[C@@H]1CC[C@]2(C)CC[C@]3(C)[C@H](CC[C@@H]4[C@@]5(C)CC[C@H](O)C(C)(C)[C@@H]5CC[C@]43C)[C@H]2C1 | – | – | IC50 [3]: > 50 µM
C[C@@]12CCCc3coc(c31)C(=O)c1cc3c(cc12)C(=O)C=C(c1cc(OS(=O)(=O)O)c2cc4c(cc2c1O)C(=O)c1occ2c1[C@@]4(C)CCC2)C3=O | – | – | IC50 [4]: 1.2 µM
C[C@H](C1=CC(=O)c2cc3c(cc2C1=O)C(=O)c1occ2c1[C@@]3(C)CCC2)C1=CC(=O)c2cc3c(cc2C1=O)[C@]1(C)CCCc2coc(c21)C3=O | – | – | IC50 [4]: 0.49 µM
COCCNC1CS(=O)(=O)c2cc(NC(=O)c3cc([N+](=O)[O-])c(Sc4c(Cl)cncc4Cl)s3)ccc21 (stereo not drawn) | 0.79 µM | 2 µM | –
C[C@@]12CCCc3c(CCO)oc(c31)C(=O)c1cc3c(cc12)C(=O)C=CC3=O | – | – | IC50 [4]: 1.4 µM
C[C@@]12CCCc3coc(c31)C(=O)c1cc3c(cc12)C(=O)C=C(C1=CC(=O)c2cc4c(cc2C1=O)C(=O)c1occ2c1[C@@]4(C)CCC2)C3=O | – | – | IC50 [4]: 0.35 µM
CC(=O)O[C@H]1CC[C@]2(C)[C@H]3CC=C4[C@@H]5[C@@H](C)[C@H](C)CC[C@]5(C(=O)O)CC[C@@]4(C)[C@]3(C)CC[C@H]2C1(C)C [O-ACETYLURSOLIC ACID] | – | – | IC50 [3]: > 50 µM
C[C@@]12CCCc3coc(c31)C(=O)c1cc3c(cc12)[C@]1(O)C[C@H](O)N2CCS(=O)(=O)C(=C21)C3=O | – | – | IC50 [4]: > 5 µM
O=C(Nc1ccc2c(c1)S(=O)(=O)C=C2)c1cc([N+](=O)[O-])c(Sc2c(Cl)cncc2Cl)s1 | 0.1 µM | 1.33 µM | –
O=C(NC1CCS(=O)(=O)CC1)c1cc([N+](=O)[O-])c(Sc2c(Cl)cncc2Cl)s1 | 2.1 µM | 3.5 µM | –
C[C@H]1[C@H](C)CC[C@]2(C(=O)O)CC[C@]3(C)C(=CC[C@@H]4[C@@]5(C)C[C@@H](O)[C@H](O)[C@@](C)(CO)[C@@H]5CC[C@]43C)[C@H]12 [ASIATIC ACID] | – | – | IC50 [3]: > 50 µM
O=C(NC1CCS(=O)(=O)c2ccccc21)c1cc([N+](=O)[O-])c(Sc2c(Cl)cncc2Cl)s1 (stereo not drawn) | 0.81 µM | 1.6 µM | –
O=C(Nc1cccc(S(=O)(=O)CC2CC2)c1)c1cc([N+](=O)[O-])c(Sc2c(Cl)cncc2Cl)s1 | 0.39 µM | 1.5 µM | –
CCS(=O)(=O)c1cccc(NC(=O)c2cc([N+](=O)[O-])c(Sc3c(Cl)cncc3Cl)s2)c1 | 0.42 µM | 0.94 µM | –
CC1CS(=N)(=O)c2cc(NC(=O)c3cc([N+](=O)[O-])c(Sc4c(Cl)cncc4Cl)s3)ccc21 (stereo not drawn) | 0.47 µM | 1.1 µM | –
C[C@@]12CCCc3coc(c31)C(=O)c1cc3c(cc12)CC1=C2N(CCS1(=O)=O)[C@H](O)C[C@@]23O | – | – | IC50 [4]: > 5 µM
C[C@@]12CCCc3coc(c31)C(=O)c1cc3c(cc12)[C@@]1(O)C[C@@H](O)N2CCS(=O)(=O)C(=C21)C3=O | – | – | IC50 [4]: > 5 µM
C[C@@]12CCCc3coc(c31)C(=O)c1cc3c(cc12)C(=O)C=C([C@]12CCC[C@@]4(C)c5cc6c(OS(=O)(=O)O)ccc(O)c6cc5C(=O)O[C@]14C(=O)OC2)C3=O | – | – | IC50 [4]: 2 µM
CS(=O)(=O)c1ccc(NC(=O)c2cc([N+](=O)[O-])c(Sc3c(Cl)cncc3Cl)s2)cc1 | 6.8 µM | 11.8 µM | –

SMILES | EC50 [1] | EC50 [2] | also measured
O=C(NC1CCS(=O)(=O)C2COCCC12)c1cc([N+](=O)[O-])c(Sc2c(Cl)cncc2Cl)s1 (stereo not drawn) | 4.8 µM | 4.1 µM | –
C[C@@]12CCC(=O)c3coc(c31)C(=O)c1cc3c(cc12)C(=O)C=CC3=O [HELENAQUINONE] | – | – | IC50 [4]: 1.3 µM
CC1(C)CC[C@]2(C(=O)O)CC[C@]3(C)C(=CC[C@@H]4[C@@]5(C)CC[C@H](O)[C@@](C)(CO)[C@@H]5CC[C@]43C)[C@@H]2C1 [HEDERAGENIN] | – | – | IC50 [3]: 33.5 µM
C[C@@]12CCCc3coc(c31)C(=O)c1cc3c4c(cc(OS(=O)(=O)O)c3cc12)[C@@]12CCC[C@@]3(C)c5cc6c(OS(=O)(=O)O)ccc(O)c6cc5C(=O)[C@@](O)(OC1)[C@@]23O4 | – | – | IC50 [4]: > 5 µM
CN(C)CCNC1CS(=O)(=O)c2cc(NC(=O)c3cc([N+](=O)[O-])c(Sc4c(Cl)cncc4Cl)s3)ccc21 (stereo not drawn) | 0.22 µM | 0.2 µM | –
C=C(C)[C@@H]1CC[C@]2(C(=O)O)CC[C@]3(C)[C@H](CC[C@@H]4[C@@]5(C)CC[C@H](O)C(C)(C)[C@@H]5CC[C@]43C)[C@H]2C1 | – | – | IC50 [3]: 33.3 µM
CC1(C)CC[C@]2(C(=O)O)[C@H](O)C[C@]3(C)C(=CC[C@@H]4[C@@]5(C)C[C@H](O)[C@H](O)[C@@](C)(CO)[C@@H]5CC[C@]43C)[C@@H]2C1 | – | – | IC50 [3]: > 50 µM
CS(=O)(=O)Nc1cccc(NC(=O)c2cc([N+](=O)[O-])c(Sc3c(Cl)cncc3Cl)s2)c1 | 0.64 µM | 1.28 µM | –
C[C@@]12CCCc3coc(c31)C(=O)c1cc3c(cc12)CC1=C2N(CCS1(=O)=O)[C@@H](O)C[C@]23O | – | – | IC50 [4]: > 5 µM
CC1(C)CC[C@]2(C(=O)O)CC[C@]3(C)C(=CC[C@@H]4[C@@]5(C)CC[C@H](O)C(C)(C)[C@@H]5CC[C@]43C)[C@@H]2C1 [OLEANOLIC_ACID] | – | – | IC50 [3]: 12.5 µM
C[C@H]1[C@H](C)CC[C@]2(C(=O)O)CC[C@]3(C)C(=CC[C@@H]4[C@@]5(C)C[C@@H](O)[C@H](O)[C@@](C)(CO)[C@@H]5[C@H](O)C[C@]43C)[C@H]12 [MADECASSIC ACID] | – | – | IC50 [3]: > 50 µM
CC1(C)CCC2(C(=O)O)CCC3=C([C@@H](CCl)C[C@@H]4[C@@]5(C)C[C@H](O)[C@H](O)[C@](C)(C(=O)O)[C@@H]5CC[C@]34C)[C@@H]2C1 (single isomer, unassigned) | – | – | IC50 [3]: > 50 µM
C[C@H]1[C@H](C)CC[C@]2(C(=O)O)CC[C@]3(C)C(=CC[C@@H]4[C@@]5(C)C[C@@H](O)[C@H](O)C(C)(C)[C@@H]5CC[C@]43C)[C@H]12 [COROSOLIC ACID] | – | – | IC50 [3]: 22.7 µM
CC1(C)[C@H](O)CC[C@]2(C)[C@H]3C(=O)C=C4[C@@H]5C[C@@](C)(C(=O)O)CC[C@]5(C)CC[C@]4(C)[C@@]3(C)CC[C@@H]12 | – | – | IC50 [3]: > 50 µM
C[C@H](CC(=O)N1CCC(O)(Cn2cnc3cc(NC(=O)CCN4CCOCC4)ccc3c2=O)CC1)c1ccccc1 | – | – | IC50 [5]: 0.48 µM
CC1(C)CC[C@]2(C(=O)O)CC[C@]3(C)C(=CC[C@@H]4[C@@]5(C)C[C@H](O)[C@H](O)[C@@](C)(CO)[C@@H]5CC[C@]43C)[C@@H]2C1 | – | – | IC50 [3]: > 50 µM
CS(=O)(=O)c1ccccc1NC(=O)c1cc([N+](=O)[O-])c(Sc2c(Cl)cncc2Cl)s1 | 0.85 µM | 9.3 µM | –
COC(=O)[C@]12CC[C@@H](C)[C@H](C)[C@H]1C1=CC[C@@H]3[C@@]4(C)CC[C@H](O)C(C)(C)[C@@H]4CC[C@@]3(C)[C@]1(C)CC2 [METHYL URSOLATE] | – | – | IC50 [3]: > 50 µM
CC(C)C(CC(=O)N1CCC(O)(Cn2cnc3cc(NC(=O)CCN4CCN(C)CC4)ccc3c2=O)CC1)c1ccccc1 (stereo not drawn) | – | – | IC50 [5]: 0.27 µM

Reference: ChEMBL document CHEMBL5233229, “Recent advances in the development of ubiquitin-specific-processing protease 7 (USP7) inhibitors” (Eur J Med Chem, 2020)
